Experimental data reported in the NIST ThermoML archive (doi:10.1021/je060228n).
Numbers after ± are expanded uncertainties.

What was measured:
[1] = 101 kPa, Liquid
[2] = refractive index (Na D-line) (dimensionless); settings: 298.15 K; 101.33 kPa; Liquid
[3] = xn = mol fraction of the nth substance listed; settings: 101 kPa, Liquid
[4] = refractive index (Na D-line) (dimensionless); xn = mol fraction of the nth substance listed; settings: 298.15 K, 101 kPa, Liquid

CCO [ethanol]
[1]
Settings	mass density [kg/m3]	speed of sound [m/s]	viscosity [mPa·s]
298.15 K	785.46 ± 0.92	1146.3 ± 9.6	1.082 ± 0.027
313.15 K	772 ± 1	1092.8 ± 9.3	0.827 ± 0.023
328.15 K	758.6 ± 1	1043.2 ± 9	0.641 ± 0.02

Settings	refractive index
[2]	1.36023 ± 0.0014

CCOS(=O)(=O)[O-].CCn1cc[n+](C)c1 [1-ethyl-3-methylimidazolium ethyl sulfate] + O
[3]
Settings	mass density, 298.15 K [kg/m3]	mass density, 313.15 K [kg/m3]	mass density, 328.15 K [kg/m3]	speed of sound, 298.15 K [m/s]	speed of sound, 313.15 K [m/s]	speed of sound, 328.15 K [m/s]	viscosity, 298.15 K [mPa·s]	viscosity, 313.15 K [mPa·s]	viscosity, 328.15 K [mPa·s]
x2 = 0	1237.63 ± 1.3	1227.51 ± 1.3	1217.47 ± 1.2	1679.1 ± 13	1641.6 ± 13	1604.5 ± 12	97.58 ± 4.5	50.01 ± 0.52	29.18 ± 0.58
x2 = 0.0715	1236.14 ± 1.2	1225.97 ± 1.2	1215.87 ± 1.2	1687 ± 13	1640.1 ± 13	1617.1 ± 12	82.01 ± 2.9	43.36 ± 0.82	25.8 ± 0.5
x2 = 0.2089	1232.72 ± 1.2	1222.53 ± 1.1	1212.4 ± 1.1	1696.7 ± 13	1660.8 ± 13	1622.1 ± 13	57.84 ± 0.73	32.09 ± 0.6	19.82 ± 0.38
x2 = 0.3227	1229 ± 1.1	1218.87 ± 1.1	1208.82 ± 1.1	1707.2 ± 13	1671 ± 13	1631.7 ± 13	42.89 ± 0.76	24.76 ± 0.46	15.8 ± 0.3
x2 = 0.5041	1220 ± 1	1209.82 ± 0.99	1199.54 ± 0.96	1729 ± 13	1692.6 ± 13	1652.9 ± 13	24.74 ± 0.44	15.11 ± 0.29	10.02 ± 0.2
x2 = 0.5975	1212.9 ± 1	1202.43 ± 0.94	1192.02 ± 0.91	1741.6 ± 13	1703.9 ± 13	1665.9 ± 13	17.52 ± 0.32	10.98 ± 0.21	7.45 ± 0.15
x2 = 0.7441	1192.2 ± 0.9	1181.55 ± 0.85	1170.8 ± 0.8	1773 ± 14	1734.5 ± 13	1695.3 ± 13	10.58 ± 0.2	6.715 ± 0.14	4.622 ± 0.11
x2 = 0.854	1159.2 ± 0.8	1146.19 ± 0.72	1135.3 ± 0.7	1792.6 ± 14	1749.2 ± 13	1704.3 ± 13	5.848 ± 0.13	3.818 ± 0.087	2.596 ± 0.06
x2 = 0.9506	1084.4 ± 0.5	1076.1 ± 0.49	1066.9 ± 0.5	1709.2 ± 13	1693.1 ± 13	1668.1 ± 13	2.316 ± 0.054	1.608 ± 0.038	1.189 ± 0.029

[4]
Settings	refractive index
x2 = 0	1.4794 ± 0.0014
x2 = 0.0715	1.47827 ± 0.0014
x2 = 0.2089	1.476 ± 0.0014
x2 = 0.3227	1.47344 ± 0.0014
x2 = 0.5041	1.46726 ± 0.0014
x2 = 0.5975	1.46243 ± 0.0014
x2 = 0.7441	1.44916 ± 0.0014
x2 = 0.854	1.42825 ± 0.0014
x2 = 0.9506	1.38383 ± 0.0014
